According to US6399542B1, “Alkoxyimino-substituted bicyclic compounds compositions containing the same and method of making such compounds” (Agro-Kanesho Co., Ltd., priority 1997, dated 2002):
Read-outs that look alike come from different tables or passages of the source.

Columns and labels:
[1] = tested on: Puccinia recondite; test: Penetration and translocation in wheat leaves (covered leaf tip, brown rust); type: in vivo
[2] = tested on: Puccinia recondita; test: Effect on Wheat brown rust (preventive spray test); type: in vivo; settings: 7 days after inoculation
[3] = tested on: Botrytis cinerea; test: Effect on Cucumber gray mold (cotyledon paper disc test); type: in vivo; settings: 3 days after inoculation
[4] = tested on: Psecidoperonospora cubensis; test: Effect on Cucumber downy mildew (preventive spray test); type: in vivo; settings: 7 days after inoculation
[5] = tested on: Chochliobolus miyabeanus; test: Effect on Rice brown spot (preventive spray test); type: in vivo; settings: 7 days after inoculation
[6] = tested on: Rhizoctonia solani; test: Effect on Rice sheath blight (preventive spray test); settings: 10 days after inoculation
Description: An emulsion of a compound of the present invention prepared in Preparation Example 2 was diluted with water and uniformly sprayed on 5 rice plant seedlings (variety: Koshihikari) in 4.5-leaf stage in each plastic pot having a diameter of 6 cm, with a spray gun. One day after the spraying, the seedlings were bundled at the second sheath with a string. Colonies of Rhizoctonia solani previously cultured in PSA culture medium were bored with a cork borer to obtain pieces having a diameter of 4 mm. The piece was put in the bundle, and kept in a high-humidity room at 25° C. until the examination. Ten days after the inoculation, the degree of the disease was examined, and the preventive rate (effect of inhibiting the disease) was calculated on the basis of the following standard:
Preventive rate=[1-D′/C′]×100
C′: Severity in untreated section
D′: Severity in treated section.

[7] = tested on: Erysiphe graminis; test: Effects on Barley powdery mildew (preventive spray test); type: in vivo; settings: lesions counted seven days after inoculation
[8] = tested on: Phytophthora infestans; type: in vivo; settings: Tomato late blight, 5 days after inoculation
[9] = tested on: Pyricularia oryzae; type: in vivo; settings: Rice blast, 7 days after inoculation
[10] = conc. of active ingredient 100 ppm
[11] = conc. of active ingredient 20 ppm
[12] = conc. of active ingredient 4 ppm
[13] = conc. of active ingredient 200 ppm

SMILES | Preventive rate (%) [2, 11] | Preventive rate (%) [2, 10] | Preventive rate (%) [3, 11] | Preventive rate (%) [3, 10] | Preventive rate (%) [4, 11] | Preventive rate (%) [4, 10] | Preventive rate (%) [4, 12] | Preventive rate (%) [5, 11] | Preventive rate (%) [5, 10] | Preventive rate (%) [6, 11] | Preventive rate (%) [6, 10] | Preventive rate (%) [7, 12] | Preventive rate (%) [7, 11] | Preventive rate (%) [7, 10] | Preventive rate (%) [8, 11] | Preventive rate (%) [8, 10] | Preventive rate (%) [2, 12] | also measured
CON=C(C(=O)OC)c1ccccc1COc1ccc2c(c1C)OC(C)CC2=NOC (racemic) [d-10] | – | – | – | – | – | – | – | – | – | – | – | – | – | – | – | – | – | Number of lesions formed within the mark to the tip [1, 10]: 0; Preventive rate (%) [1, 10]: 100%; Rate of the translocation perfect preventive conc. (%) [1, 10]: 100%
CON=C1COc2cc(OCc3ccccc3N(OC)C(=O)OC)ccc21 [a-7, methyl N-[2-(3-methoxyimino-2,3-dihydro-benzofuran-6-yloxymethyl)-phenyl]-N-methoxycarbamate] | 99% | 100% | 56% | 97% | 94% | 97% | – | – | – | – | – | – | – | – | – | – | – | melting point: 102 to 103 °C
CNC(=O)N(OC)c1ccccc1COc1ccc2c(c1)OCC2=NOC [a-8, N-[2-(3-methoxyimino-2,3-dihydrobenzofuran-6-yloxymethyl)phenyl]-N-methoxy-N′-methylurea] | 99% | 100% | – | – | 88% | 94% | 75% | – | – | – | – | – | – | – | – | – | – | melting point: 109 to 112 °C
COC=C(C(=O)OC)c1ccccc1COc1ccc2c(c1C)OCC2=NOC [a-13] | – | – | 96% | 100% | 96% | 100% | – | 88% | 96% | 97% | 97% | 100% | 100% | 100% | 100% | 100% | – | –
CNC(=O)/C(=N/OC)c1ccccc1COc1cc2c(cc1C)C(=NOC)CO2 [a-27] | 100% | 100% | – | – | – | – | – | 77% | 83% | – | – | 100% | 100% | 100% | 95% | 95% | 98% | Number of lesions formed within the mark to the tip [1, 13]: 0; Preventive rate (%) [1, 13]: 100%; Rate of the translocation perfect preventive conc. (%) [1, 13]: 100%; Preventive rate (%) [9, 11]: 77%; Preventive rate (%) [9, 10]: 82%; Preventive rate (%) [8, 12]: 95%
CCON=C1COc2cc(OCc3ccccc3/C(=N\OC)C(=O)NC)ccc21 [a-37, (E) methoxyimino-[2-(3-ethoxyimino-2,3-dihydrobenzofuran-6-yloxymethyl)-phenyl]-N-methyl-acetamide] | 99% | 100% | 100% | 100% | 100% | 100% | – | – | – | – | – | – | – | – | – | – | – | melting point: 110 to 113 °C
C=CCON=C1COc2c1ccc(OCc1ccccc1/C(=N\OC)C(=O)OC)c2C [a-59] | 98% | 100% | 73% | 76% | – | – | – | – | – | 60% | 72% | – | 92% | 100% | – | – | 90% | –
CO/N=C(/C(=O)OC)c1ccccc1COc1ccc2c(c1C)OCC2=NOC/C=C/Cl [a-61] | 100% | 100% | 91% | 85% | – | – | – | 72% | 91% | 60% | 96% | 99% | 100% | 100% | 89% | 91% | 91% | Preventive rate (%) [5, 12]: 49%
CNC(=O)/C(=N/OC)c1ccccc1COc1ccc2c(c1C)OCC2=NOC/C=C/Cl [a-62] | 100% | 100% | 96% | 100% | 100% | 100% | 94% | 83% | 88% | 91% | 98% | 98% | 100% | 100% | 97% | 98% | 100% | –
C#CCON=C1COc2c1ccc(OCc1ccccc1/C(=N\OC)C(=O)OC)c2C [a-70] | 100% | 100% | 53% | 85% | 88% | 91% | – | – | – | 80% | 90% | – | 100% | 100% | 95% | 95% | 99% | –
CNC(=O)/C(=N/OC)c1ccccc1COc1ccc2c(c1C)OC(C)C2=NOC (stereo not shown) [b-7] | 100% | 100% | – | – | 93% | 96% | 89% | 95% | 96% | 86% | 98% | 99% | 100% | 100% | 95% | 100% | 99% | Preventive rate (%) [5, 12]: 56%; Preventive rate (%) [9, 11]: 89%; Preventive rate (%) [9, 10]: 100%
CON=C(C(=O)OC)c1ccccc1COc1ccc2c(c1)OCCC2=NOC [c-4] | – | 100% | – | – | 94% | 100% | – | 80% | 80% | 53% | 98% | – | – | – | 97% | 97% | – | Preventive rate (%) [9, 11]: 86%; Preventive rate (%) [9, 10]: 90%
COC=C(C(=O)OC)c1ccccc1COc1ccc2c(c1C)OCCC2=NOC [c-13] | 100% | 100% | 49% | 58% | 100% | 100% | 100% | 93% | 100% | – | – | 100% | 100% | 100% | 100% | 100% | 100% | Preventive rate (%) [5, 12]: 82%; Number of lesions formed within the mark to the tip [1, 10]: 0; Preventive rate (%) [1, 10]: 100%; Rate of the translocation perfect preventive conc. (%) [1, 10]: 100%; Preventive rate (%) [9, 11]: 94%; Preventive rate (%) [9, 10]: 100%; Preventive rate (%) [8, 12]: 95%
CNC(=O)C(=NOC)c1ccccc1COc1ccc2c(c1C)CCC2=NOC [e-16] | 100% | 100% | – | – | 100% | 100% | – | – | – | – | – | 100% | 100% | 100% | 100% | 100% | – | Number of lesions formed within the mark to the tip [1, 10]: 0; Preventive rate (%) [1, 10]: 100%; Rate of the translocation perfect preventive conc. (%) [1, 10]: 100%
CNC(=O)C(=NOC)c1ccccc1COc1cc(C)c2c(c1C)CCC2=NOC [e-23] | 100% | 100% | 86% | 96% | 96% | 100% | – | 98% | 98% | 64% | 69% | 100% | 100% | 100% | 100% | 100% | – | –
CNC(=O)C(=NOC)c1ccccc1COc1cc2c(cc1C)C(=NOC)CC2 [e-27] | 100% | 100% | – | – | 100% | 100% | 100% | 99% | 99% | – | – | 99% | 99% | 100% | 100% | 100% | 100% | Preventive rate (%) [5, 12]: 96%; Number of lesions formed within the mark to the tip [1, 10]: 0; Preventive rate (%) [1, 10]: 100%; Rate of the translocation perfect preventive conc. (%) [1, 10]: 100%; Preventive rate (%) [8, 12]: 100%
